Measured values reported in US20190015400A1, “Antifungal Compositions” (priority 2017, published 2019).

Assays:
[1] = test system: C. glabrata ATCC 2001 (strain H); test: Time-kill assay, POS and EBA; format: cell-based, Candida glabrata; conditions: drug alone (POS at concentration used in MICcombination; NYT, AMB at 1×MIC), inoculum 10^5
Experimental: The protocol for time-kill assays followed methods previously described with minor modifications. Yeast cultures were grown overnight in YEPD medium at 35° C. with shaking at 200 rpm. A working stock of fungal cells was made by diluting cultures in 1640 medium to an OD600 of 0.125 (˜1×10^6 CFU/mL). From the working stock, 100 μL of cells was added to 4.9 mL of RPMI 1640 medium in sterile culture tubes, making the starting fungal cell concentration ˜1×10^5 CFU/mL. Drug was then added to the fungal cells. […] Treated fungal cultures were incubated in the culture tubes at 35° C. with 200 rpm shaking for 24 h. Samples were aliquoted from the different treatments at regular time points (0, 3, 6, 9, 12, and 24 h) and plated in duplicate. For each time point, cultures were vortexed, 100 μL of culture was aspirated, and 10-fold serial dilutions were made in sterile ddH2O. From the appropriate dilutions, 100 μL of fungal suspension was spread on PDA plates and incubated at 35° C. for 48 h before colony counts were determined. At 24 h, 50 μL of 1 mM resazurin in phosphate buffered saline (PBS) was added to the treatments and incubated at 35° C. with 200 rpm shaking for 2 h in the dark for visual inspection. […] Experiments were performed in duplicate.

[2] = test system: C. glabrata ATCC 2001 (strain H); test: MIC and checkerboard assay, azoles + antihistamines; format: cell-based, Candida glabrata
Experimental: Determination of minimum inhibitory concentration (MIC) values. MIC values were recorded for all antifungals and antihistamines in order to determine the concentration range of compounds to be used in the checkerboard assays.
The MIC assays were done using the broth microdilution method as described in CLSI document M27-A3 with minor modifications. Yeast cultures were started by picking a colony from a PDA plate stored at 4° C. The colonies were grown in YEPD medium overnight at 35° C. with shaking at 200 rpm. In a 96-well plate compounds were diluted lengthwise along the plate in serial 2-fold dilutions in the RPMI 1640 medium. The yeast cultures were diluted in RPMI 1640 medium to an OD600 within the range of 0.12 and 0.15 (˜1×10^6 cells/mL). The fungal cells were further diluted by taking 25 μL of fungal cells and adding them to 10 mL of RPMI 1640 medium before adding 100 μL to plate (200 μL total volume). The plates were incubated at 35° C. for 48 h. Visual inspection of the wells for no growth was used to determine the MIC. All compounds were tested in duplicate (TABLES 6 and 7).
Checkerboard assays were done as previously described to determine the fractional inhibitory concentration index (FICI). 2-fold dilutions of the azole drug were made in RPMI 1640 medium lengthwise along the plate. For the antihistamine, 2-fold serial dilutions were made in sterile tubes with RPMI 1640 medium, then aliquoted into the plate. […] The maximal amount was used in the checkerboard assays if complete inhibition was not observed in the MIC assays. Cultures were started by picking a colony from a plate and growing in YEPD medium overnight at 35° C. with shaking at 200 rpm. Cultures were diluted in RPMI 1640 medium to an OD600 between 0.12 and 0.15 (˜1×10^6 cells/mL). Cells were then further diluted by taking 25 μL of cell suspension and adding to 10 mL of RPMI 1640 medium. After the drugs were added to the plate with 100 μL of medium, 100 μL of fungal cells were added. Plates were incubated at 35° C. for 48 h and visual inspection was used to determine wells with no growth. All experiments were carried out in duplicate. The FICI was calculated based on the formula below. The combinational effect of the 2 tested compounds were considered synergistic (SYN) if FICI≤0.5, additive (ADD) if 0.5<FICI≤4, and antagonistic if FICI>4 (TABLES 6-9).

[3] = test system: C. albicans ATCC 64124 (strain F); test: MIC and checkerboard assay, azoles + compounds 1-5; format: cell-based, Candida albicans; conditions: combination compound 2 + POS
Experimental: These compounds were serially diluted (two-fold dilutions) horizontally on the plate in 100 μL of RPMI medium. A diluted yeast culture (25 μL of a fungal stock with OD600 of 0.125 in 10 mL of RPMI medium, which achieves a final inoculum size of around 1-5×10^3 CFU/mL) was plated across the plate (100 μL per well), making a final volume of 200 μL total per well.
The appropriate range of concentrations for each compound was determined based on their corresponding MIC values against each fungal strain. The inoculum size for yeast and filamentous fungi were the same as in the MIC experiments described in section 2.2. The 96-well plates were incubated at 35° C. for 48 h for yeasts and 72 h for the Aspergillus strain before visual inspection for growth. […] The combinational effect of the two tested compounds were considered synergistic (abbreviated SYN) if FICI<0.5, additive (abbreviated ADD) if 0.5<FICI<4, and antagonistic if FICI>4 (TABLES 2-4).

[4] = test system: C. albicans ATCC 64124 (strain F) biofilm; test: Biofilm disruption assay (XTT, SMIC99), azoles + compound 2; format: cell-based, Candida albicans
Experimental: In order to investigate the synergistic effect of azoles and our compounds on inhibiting biofilm formation of C. albicans ATCC 64124 (strain F), we performed a biofilm disruption assay in a checkerboard setup and used XTT [2,3-bis(2-methoxy-4-nitro-5-sulfophenyl)-2H-tetrazolium-5-carboxanilide] reduction to examine the metabolic activity of the biofilm. Briefly, C. albicans ATCC 64124 (strain F) was grown overnight in YEPD broth at 35° C. The culture was then diluted to an OD600 of 0.12 (equivalent to 1×10^6 CFU/mL) and 100 μL was placed into each well of a 96-well plate. The cells were incubated at 37° C. for 24 h for growth. The following day, the spent medium containing planktonic cells was aspirated and each wells were carefully washed three times with sterile phosphate buffer saline (PBS). […] The negative control (medium only) and the positive control (biofilm plus medium) wells were also included in the same 96-well plate. The plates were then incubated at 37° C. statically for additional 24 h and then washed with sterile PBS. 100 μL of a XTT (0.5 mg/mL)/menadione (1 μM) solution was added to each well, covered with aluminum foil, and incubated for 2 h at 37° C. Then, 80 μL of the colored supernatant from each well was transferred to a new 96-well plate, and the absorption was read at OD490. The percent metabolic activity of the formed biofilm at various drug concentration combinations was calculated by dividing the metabolic activity of biofilm formed for that well by that of the biofilm formed in the growth control well (in the absence of any drug). For these experiments, the sessile MIC (SMIC99) was determined, which is defined as the drug concentration required to inhibit the metabolic activity of biofilm by 99% compared to the growth control. The assay for each combination was performed in duplicates.

## CC[C@@H]([C@H](C)O)n1ncn(-c2ccc(N3CCN(c4ccc(OC[C@@H]5CO[C@@](Cn6cncn6)(c6ccc(F)cc6F)C5)cc4)CC3)cc2)c1=O [POS, posaconazole]
[1]
  CFU/mL at 24 h: 10^8 CFU/mL
[2]; Nakaseomyces glabratus, ATCC2001, drug alone
  MIC: > 32 µg/mL
[2]; combination POS + EBA, MIC of the labelled drug
  MIC in combination: 0.5 µg/mL
[2]; combination POS + EBA, decrease for the labelled drug
  fold decrease in MIC (combination vs alone): 64 fold
[3]; MIC of the labelled drug
  MIC in combination: 4 µg/mL
[3]; reduction for the labelled drug
  fold reduction in MIC (combination vs alone): 8 fold
[4]; azole alone, sessile cells
  SMIC alone (μg/mL) Azole: >32 µg/mL
[4]; azole in combination with compound 2
  SMIC combo (μg/mL) Azole: 0.5 µg/mL
